In one assay the test system is T98G glioma cells. Description: Cell migration assay, modified Boyden chamber, TWEAK induced. In kind it is cell-based, human. Particulars: 10 μM, 5 hours. Here is the method: Cell Migration Assay. The effect of pharmacological inhibition of TWEAK/Fn14 signaling on glioma cell migration was analyzed using a modified Boyden chamber (Neuroprobe, Cabin John, Md.) as described previously (Lamszus, K., et al. (1998) Journal international du cancer 75, 19-28; Brockmann, M. A., et al. (2003) Neurosurgery 52, 1391-1399). Each well contains a […] pore size Nucleopore filter that had been coated with 50 μg/mL PureCol® (Bovine Collagen) (Advanced Biomatrix, Poway, Calif.). T98G glioma cells were treated with selected drug compound for 1 hr and then seeded at 4.8×10^4 cells in 100 μL of DMEM with 0.1% bovine serum assay medium to the top well of the chamber. TWEAK was added to the lower wells of the chamber using DMEM with 0.1% bovine serum albumin as assay medium. After incubation for 5 hours at 37° C., nonmigrated cells were scraped off the upper side of the filter, and filters were stained with 4′,6-diamidino-2-phenylindole (DAPI). Nuclei of migrated cells were counted in 5 high-power fields (HPF) with a 20× objective. Values were assessed in triplicate.

The target of the next assay is T1, TWEAK (Homo sapiens, UniProt O43508).
T1 sequence (O43508 94-249 limits assumed): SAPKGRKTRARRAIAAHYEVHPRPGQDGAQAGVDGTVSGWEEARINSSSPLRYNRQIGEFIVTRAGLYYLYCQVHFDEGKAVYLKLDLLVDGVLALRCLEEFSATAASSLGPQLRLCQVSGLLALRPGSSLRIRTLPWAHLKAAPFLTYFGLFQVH
Description: Surface Plasmon Resonance assay, TWEAK sensor surface. Particulars: SPR, 0 to 50 μM. In kind it is binding. How it is done: Surface Plasmon Resonance (SPR) Assay. The binding affinity of at least one of the compounds (e.g., L524-0366) to TWEAK and Fn14-Fx was determined using a BIAcore T100 optical biosensor (GE Healthcare) at 25 degrees Celsius at the Arizona Proteomics Consortium. Recombinant human TWEAK (20 μg/mL in 10 mM HEPES pH 7.4, 150 mM NaCl, 3 mM EDTA, 0.05% Tween 20) or recombinant human Fn14-Fc (20 μg/mL in 10 mM NaOAc pH 4.0) were covalently coupled to separate flow cells on a BIAcore CM5 sensor chip using standard amine coupling chemistry as per manufacturer's protocol. Final immobilization levels were 6000 Response Units (RU) for TWEAK and 13,000 RU for FN14-Fc. The first flow path of the chip was treated with the same coupling and blocking reagents without protein and was used as a reference for each binding cycle. Functionality of the TWEAK and the Fn14-Fc sensor surfaces were verified by injecting Fn14-Fc and TWEAK over them respectively. Serial dilutions of L524-0366 or cycloheximide (control) from 0 to 50 μM were made in running buffer (10 mM HEPES pH 7.4, 150 mM NaCl, 3 mM EDTA, 1% DMSO). […] Equilibrium dissociation constants for the small molecules were calculated by fitting the double reference subtracted data to Req=((CRmax)/(KD+C))+RI, where RI is the bulk refractive index contribution.

Each structure is given as a SMILES string.

This is an account of results in patent US9238034B2, “FN14 antagonists and therapeutic uses thereof” (THE TRANSLATIONAL GENOMICS RESEARCH INSTITUTE, priority 2013, dated 2016).

On to `O=C(c1cn(-c2cccc(Cl)c2)nn1)N1CCSCC1` [Compound L524-0366], for which the “TWEAK-induced T98G cell migration” value in the assay on T98G glioma cells is given as “completely suppressed”. The “binding to TWEAK” value on TWEAK is recorded as “not to the TWEAK surface”.
